{"source": "patent US20240358713A1", "about": "“PHARMCAEUTICAL COMPOSITION CONTAINING BENZOXAZEPINE DERIVATIVES, AND A METHOD FOR TREATING CANCER” (Yarmouk University, priority 2023, published 2024)", "key": {"[1]": {"tested_on": "adenocarcinoma human alveolar basal epithelial cells (A549)", "test": "MTT cytotoxic / anti-proliferative assay, A549", "type": "cell-based", "procedure": "(§1) The benxoxazepine derivative compound of the present disclosure was dissolved in DMSO to give a […] concentration. The DMSO concentration was less than 1.0% in all experiments and controls.\n(§2) The evaluation of anti-proliferative activity was preformed to different cancer cells named human cervical adenocarcinoma (HeLa), adenocarcinoma human alveolar basal epithelial cells (A549), human breast cancer (MCF-7), colon adenocarcinoma Caco-2, compared with human fibroblast cell lines (F2). All cells were grown in Dulbecco's modified Eagle's minimal essential medium (DMEM), supplemented with 25 mM glucose, 10% inactivated fetal bovine serum (Flow, McLean, VA, USA), and 1% penicillin/streptomycin, and maintained at 37° C. in a humidified incubator with 5% CO2. The cells with 30-40 passages were used for further investigations.\n(§3) Exponentially growing cells A549, HeLa, Caco-2, MCF-7, and normal fibroblast cell cells have been washed and seeded at 3×10^3 cells/well (100 μL/well) in 96 well microplates (Greiner, Germany). After 24 h, cells were confluent, and media was changed, and cells were incubated with the compound of the present disclosure (200-1 μg/mL) for 24 h. In vitro anti-proliferative activity was measured by the cell growth inhibition assay using 3-(4,5-dimethyl-thiazol-2-yl)-2,5-di-phenyltetrazolium bromide (MTT) assay according to the manufacturer's instructions (Promega Corporation, Madison, WI). Briefly, the assay measured the formation of blue formazan product as a result of the reduction of MTT by mitochondrial dehydrogenase, which indicates the normal function of mitochondria and cell viability. The amount of formazan was quantified using a microplate reader (Thermo Fisher Scientific, Waltham, MA, USA) and compared to the optical density obtained for the control (untreated) at 570 nm. The IC50 values were calculated according to the equation for Boltzmann sigmoidal concentration response curve using the nonlinear regression models (GraphPad, Prism Version 7, San Diego, CA, USA). The average of three replicates of IC50 values were calculated and mentioned in the present disclosure Table 1.\n(§4) The anti-proliferative activity of the investigated compound of formula 1 of the present disclosure was expressed in IC50 values (the concentration needed to inhibit 50% of cell growth) compared to untreated cells (negative control)."}, "[2]": {"tested_on": "human cervical adenocarcinoma (HeLa)", "test": "MTT cytotoxic / anti-proliferative assay, HeLa", "type": "cell-based", "procedure": "as §1, §2\nas §3, with “After 24 h, cells were confluent, and media was changed, and cells were incubated with the compound of the present disclosure (200-1 μg/mL) for 24 h.” left out, “1. […]” for “1.”"}, "[3]": {"tested_on": "human breast cancer (MCF-7)", "test": "MTT cytotoxic / anti-proliferative assay, MCF-7", "type": "cell-based", "procedure": "as §1, §2, §3, §4"}, "[4]": {"tested_on": "human fibroblast cell lines (F2)", "test": "MTT cytotoxic / anti-proliferative assay, normal fibroblast", "type": "cell-based", "procedure": "as §1, §2\nas §3, with “After 24 h, cells were confluent, and media was changed, and cells were incubated with the compound of the present disclosure (200-1 μg/mL) for 24 h.” left out, “1. […]” for “1.”"}, "[5]": {"tested_on": "release of IL-6 of normal fibroblast cell", "test": "IL-6 release ELISA, normal fibroblast", "type": "cell-based, human", "conditions": "1, 5, 10, 25, 50 μg/mL, overnight, ELISA of supernatant", "procedure": "(§5) Non-treated cells were used as negative controls. […] All incubation steps were performed at room temperature."}, "[6]": {"tested_on": "release of TNF-α of A549 cell lines", "test": "TNF-α release ELISA, A549", "type": "cell-based, human", "conditions": "1, 5, 10, 25, 50 μg/mL, overnight, ELISA of supernatant", "procedure": "as §5"}, "[7]": {"tested_on": "release of TNF-α of HeLa cell lines", "test": "TNF-α release ELISA, HeLa", "type": "cell-based, human", "conditions": "1, 5, 10, 25, 50 μg/mL, overnight, ELISA of supernatant", "procedure": "as §5"}, "[8]": {"tested_on": "release of TNF-α of MCF-7 cell lines", "test": "TNF-α release ELISA, MCF-7", "type": "cell-based, human", "conditions": "1, 5, 10, 25, 50 μg/mL, overnight, ELISA of supernatant", "procedure": "as §5"}, "[9]": {"tested_on": "release of TNF-α of normal fibroblast cell", "test": "TNF-α release ELISA, normal fibroblast", "type": "cell-based, human", "conditions": "1, 5, 10, 25, 50 μg/mL, overnight, ELISA of supernatant", "procedure": "as §5"}, "[10]": {"tested_on": "colon adenocarcinoma Caco-2", "test": "MTT cytotoxic / anti-proliferative assay, Caco-2", "type": "cell-based, human", "conditions": "MTT"}, "[11]": {"test": "MTT cytotoxic / anti-proliferative assay, Caco-2", "type": "cell-based, human", "conditions": "human; calculated SI for cancer cell Caco-2; SI higher than 1.0 considered selective to cancer cell; read-out: Selectivity index (SI) Caco-2"}, "[12]": {"tested_on": "release of IL-6 of A549 cell lines", "test": "IL-6 release ELISA, A549", "type": "cell-based, human", "conditions": "1, 5, 10, 25, 50 μg/mL, overnight, ELISA of supernatant", "procedure": "as §5"}, "[13]": {"tested_on": "release of IL-6 of HeLa cell lines", "test": "IL-6 release ELISA, HeLa", "type": "cell-based, human", "conditions": "1, 5, 10, 25, 50 μg/mL, overnight, ELISA of supernatant", "procedure": "as §5"}, "[14]": {"tested_on": "release of IL-6 of MCF-7 cell lines", "test": "IL-6 release ELISA, MCF-7", "type": "cell-based, human", "conditions": "1, 5, 10, 25, 50 μg/mL, overnight, ELISA of supernatant", "procedure": "as §5"}, "[15]": {"tested_on": "release of TNF-α of Caco-2 cell lines", "test": "TNF-α release ELISA, Caco-2", "type": "cell-based, human", "conditions": "1, 5, 10, 25, 50 μg/mL, overnight, ELISA of supernatant", "procedure": "as §5"}, "[16]": {"conditions": "MTT, 24 h incubation, average of three replicates"}, "[17]": {"conditions": "24 h incubation, average of three replicates"}}, "note": "Entries after “also recorded” stand apart in the source; their conditions may differ."}
{"smiles": "N.N.[Cl][Pt][Cl]", "note": "[Cisplatin, cisplatin, reference compound]", "values": [{"measurement": "IC50 A549", "setting": "[1]; [16]", "result": "3.13 ± 0.53", "unit": "µg/mL"}, {"measurement": "IC50 HeLa", "setting": "[2]; [17]", "result": 0.13, "unit": "µg/mL"}, {"measurement": "IC50 MCF-7", "setting": "[3]; [16]", "result": "1.51 ± 0.10", "unit": "µg/mL"}, {"measurement": "IC50 Fibroblast", "setting": "[4]; [17]", "result": "2.83 ± 0.12", "unit": "µg/mL"}, {"measurement": "effect on the release of IL-6, normal fibroblast cells", "setting": "[5]", "result": "not able to induce the release"}, {"measurement": "effect on the release of TNF-α, A549", "setting": "[6]", "result": "release TNF-α"}, {"measurement": "effect on the release of TNF-α, HeLa", "setting": "[7]", "result": "release TNF-α"}, {"measurement": "effect on the release of TNF-α, MCF-7", "setting": "[8]", "result": "release TNF-α"}, {"measurement": "effect on the release of TNF-α, normal fibroblast cells", "setting": "[9]", "result": "not able to induce the release"}]}
{"smiles": "C[S+](C)[O-]", "note": "[DMSO %, dimethyl sulfoxide]", "values": [{"measurement": "IC50 A549 (DMSO %)", "setting": "[1]; MTT, DMSO, value as % DMSO", "result": "0.33 ± 0.05", "unit": "%"}, {"measurement": "IC50 HeLa (DMSO %)", "setting": "[2]; DMSO, value as % DMSO", "result": "0.15 ± 0.02", "unit": "%"}, {"measurement": "IC50 Caco-2 (DMSO %)", "setting": "[10]; DMSO, value as % DMSO", "result": "23.40 ± 3.20", "unit": "%"}, {"measurement": "IC50 MCF-7 (DMSO %)", "setting": "[3]; MTT, DMSO, value as % DMSO", "result": "0.097 ± 0.02", "unit": "%"}, {"measurement": "IC50 Fibroblast (DMSO %)", "setting": "[4]; DMSO, value as % DMSO", "result": "0.13 ± 0.02", "unit": "%"}]}
{"smiles": "c1ccc2c3c(ccc2c1)OCCn1c-3nc2ccccc21", "note": "[compound of the general Formula (I)]", "values": [{"measurement": "IC50", "setting": "[1]; Homo sapiens, A549, MTT, 24 h incubation, average of three replicates", "result": "15.7 ± 0.54", "unit": "µg/mL"}, {"measurement": "Selectivity index (SI) A549", "setting": "[1]; calculated SI for cancer cell A549, SI higher than 1.0 considered selective to cancer cell", "result": 1.27}, {"measurement": "IC50", "setting": "[2]; Homo sapiens, HeLa, 24 h incubation, average of three replicates", "result": 0.003, "unit": "µg/mL"}, {"measurement": "selectivity ratio at 24 h", "setting": "[11]", "result": 0.48}, {"measurement": "IC50", "setting": "[10]; Homo sapiens, Caco-2, 24 h incubation, average of three replicates", "result": 41.3, "unit": "µg/mL"}, {"measurement": "IC50", "setting": "[3]; Homo sapiens, MCF7, MTT, 24 h incubation, average of three replicates", "result": "17.6 ± 0.72", "unit": "µg/mL"}, {"measurement": "Selectivity index (SI) MCF-7", "setting": "[3]; calculated SI for cancer cell MCF-7, SI higher than 1.0 considered selective to cancer cell", "result": 1.13}, {"measurement": "IC50", "setting": "[4]; Homo sapiens, Fibroblast, 24 h incubation, average of three replicates", "result": "19.9 ± 1.4", "unit": "µg/mL"}, {"measurement": "effect on the release of IL-6, A549", "setting": "[12]", "result": "stimulated the release of IL-6"}, {"measurement": "effect on the release of IL-6, A549", "setting": "[12]; listed as tested compound", "result": "able to stimulate the release of IL-6"}, {"measurement": "effect on the release of IL-6, HeLa", "setting": "[13]", "result": "stimulated the release of IL-6"}, {"measurement": "effect on the release of IL-6, HeLa", "setting": "[13]; listed as tested compound", "result": "able to stimulate the release of IL-6"}, {"measurement": "effect on the release of IL-6, MCF-7", "setting": "[14]", "result": "stimulated the release of IL-6"}, {"measurement": "effect on the release of IL-6, MCF-7", "setting": "[14]; listed as tested compound", "result": "able to stimulate the release of IL-6"}, {"measurement": "effect on the release of IL-6, normal fibroblast cells", "setting": "[5]; listed as tested compound", "result": "no effect; also recorded: not able to induce the release"}, {"measurement": "effect on the release of TNF-α, Caco-2", "setting": "[15]", "result": "only 50 μg/mL concentration was able to stimulate Caco-2 cell lines to significantly release TNF-α"}, {"measurement": "effect on the release of TNF-α, Caco-2", "setting": "[15]; listed as tested compound", "result": "able to stimulate Caco-2 cell lines to significantly release TNF-α when treated with 50 μg/mL concentration only"}, {"measurement": "effect on the release of TNF-α, normal fibroblast cells", "setting": "[9]", "result": "not able to induce the release"}]}
